In patent publication US12103926B2, “Compounds for treating huntington's disease” (PTC THERAPEUTICS, INC., priority 2018, dated 2024) one finds IC50 data, which are given here for 27 compounds.

Where only a bound is given, the exact number is not on record here.

As a reminder, the IC50 is the concentration that gives 50% inhibition. A lower IC50 goes with greater potency in that assay.

In the experiment the test system is Endogenous Huntingtin Protein. The experiment can be described thus: Endogenous Huntingtin Protein Assay (ELISA-based MSD electrochemiluminescence assay). The settings on record: MW1 (expanded polyglutamine) or MAB2166 capture antibody; lysates. Type of experiment: cell-based. How it is done: Compounds of Formula (I) were tested using the Meso Scale Discovery (MSD) Assay provided in International Application No. PCT/US2016/066042, filed on Dec. 11, 2016 and claiming priority to United States Provisional Application U.S. 62/265,652 filed on Dec. 10, 2015, the entire contents of which are incorporated herein by reference.
The Endogenous Huntingtin Protein assay used in Example 1 was developed using the ELISA-based MSD electrochemiluminescence assay platform.
Endogenous Huntingtin Protein Assay
Meso Scale Discovery (MSD) 96-well or 384-well plates were coated overnight at 4° C. with MW1 (expanded polyglutamine) or MAB2166 monoclonal antibody (for capture) at a concentration of 1 μg/mL in PBS (30 μL per well). Plates were then washed three times with 300 μL wash buffer (0.05% Tween-20 in PBS) and blocked (100 μL blocking buffer; 5% BSA in PBS) for 4-5 hours at room temperature with rotational shaking and then washed three times with wash buffer.
Samples (25 μL) were transferred to the antibody-coated MSD plate and incubated overnight at 4° C. After removal of the lysates, the plate was washed three times with wash buffer, and 25 μL of #5656S (Cell signaling; rabbit monoclonal) secondary antibody (diluted to 0.25 μg/mL in 0.05% Tween-20 in blocking buffer) was added to each well and incubated with shaking for 1 Hour at room temperature. Following incubation with the secondary antibody, the wells were rinsed with wash buffer after which 25 μL of goat anti-rabbit SULFO TAG secondary detection antibody (required aspect of the MSD system) (diluted to 0.25 μg/mL in 0.05% Tween-20 in blocking buffer) was added to each well and incubated with shaking for 1 hour at room temperature. After rinsing three times with wash buffer, 150 μL of read buffer T with surfactant (MSD) were added to each empty well, and the plate was imaged on a SI 6000 imager (MSD) according to manufacturers' instructions provided for 96- or 384-well plates.
(An ELISA detects its analyte on a solid surface through an enzyme-linked reagent.)
`CN(c1cnc(-c2ccc(-c3cnn(C)c3)cc2O)cn1)C1CC(C)(C)NC(C)(C)C1` [Cpd 27, 5-(1-methyl-1H-pyrazol-4-yl)-2-{5-[methyl(2,2,6,6-tetramethylpiperidin-4-yl)amino]pyrazin-2-yl} phenol] registered an IC50 of 100 to 500 nM.
Regarding `[2H]C([2H])([2H])n1cc(-c2ccc(-c3cnc(N(C)C4CC(C)(C)NC(C)(C)C4)cn3)c(O)c2)cn1` [Cpd 28, 5-[1-(^2H3)methyl-1H-pyrazo1-4-yl]-2-{5-[methyl(2,2,6,6-tetramethylpiperidin-4-yl)amino]pyrazin-2-yl}phenol], the half-inhibitory concentration (IC50) is 500 to 1000 nM.
Consider `Cc1cn(-c2ccc(-c3cnc(N(C)C4CC(C)(C)NC(C)(C)C4)cn3)c(F)c2F)cn1` [Cpd 41, 5-[2,3-difluoro-4-(4-methyl-1H-imidazol-1-yl)phenyl]-N-methyl-N-(2,2,6,6-tetramethylpiperidin-4-yl)pyrazin-2-amine], for which the IC50 was 500 to 1000 nM.
The compound `Cc1ncn(-c2cc(F)c(-c3cnc(N(C)C4CC(C)(C)NC(C)(C)C4)cn3)cc2F)n1` [Cpd 42, 5-[2,5-difluoro-4-(3-methyl-1H-1,2,4-triazol-1-yl)phenyl]-N-methyl-N-(2,2,6,6-tetramethylpiperidin-4-yl)pyrazin-2-amine] yielded an IC50 of 100 to 500 nM.
The same measure for `CN(c1cnc(-c2ccc(-c3c[nH]nc3F)cc2O)cn1)C1CC(C)(C)NC(C)(C)C1` [Cpd 43, 5-(3-fluoro-1H-pyrazol-4-yl)-2-{5-[methyl(2,2,6,6-tetramethylpiperidin-4-yl)amino]pyrazin-2-yl}phenol]: 100 to 500 nM.
In the case of `CC1(C)CC(Nc2cnc(-c3ccc(-c4ccncc4)cc3O)cn2)CC(C)(C)N1` [Cpd 44, 5-(pyridin-4-yl)-2-{5-[(2,2,6,6-tetramethylpiperidin-4-yl)amino]pyrazin-2-yl} phenol], the IC50 is 100 to 500 nM.
In turn, `CC1(C)CC(Nc2cnc(-c3ccc(-c4cccnc4)cc3O)cn2)CC(C)(C)N1` [Cpd 45, 5-(pyridin-3-yl)-2-{5-[(2,2,6,6-tetramethylpiperidin-4-yl)amino]pyrazin-2-yl}phenol] yielded an IC50 of 500 to 1000 nM.
Consider `CC1(C)CC(Nc2cnc(-c3ccc(-c4cn[nH]c4)cc3O)cn2)CC(C)(C)N1` [Cpd 46, 5-(1H-pyrazol-4-yl)-2-{5-[(2,2,6,6-tetramethylpiperidin-4-yl)amino]pyrazin-2-yl}phenol], for which the IC50 is < 100 nM.
`CC1(C)CC(Nc2cnc(-c3ccc(-c4ncccn4)cc3O)cn2)CC(C)(C)N1` [Cpd 47, 5-(pyrimidin-2-yl)-2-{5-[(2,2,6,6-tetramethylpiperidin-4-yl)amino]pyrazin-2-yl} phenol] showed a concentration for half-maximal inhibition (IC50) of 1000 to 3000 nM.
`CC1(C)CC(Nc2cnc(-c3ccc(-c4ccccn4)cc3O)cn2)CC(C)(C)N1` [Cpd 48, 5-(pyridin-2-yl)-2-{5-[(2,2,6,6-tetramethylpiperidin-4-yl)amino]pyrazin-2-yl}phenol]: the concentration for half-maximal inhibition (IC50) was in the range of 3000 to 9000 nM.
With `COc1cc(-c2ccc(-c3cnc(NC4CC(C)(C)NC(C)(C)C4)cn3)c(O)c2)ncn1` [Cpd 49, 5-(6-methoxypyrimidin-4-yl)-2-{5-[(2,2,6,6-tetramethylpiperidin-4-yl)amino]pyrazin-2-yl}phenol] the figure was < 100 nM; with `CC1(C)CC(Nc2cnc(-c3ccc(-n4ccnc4)cc3O)cn2)CC(C)(C)N1` [Cpd 50, 5-(1H-imidazol-1-yl)-2-{5-[(2,2,6,6-tetramethylpiperidin-4-yl)amino]pyrazin-2-yl}phenol], 100 to 500 nM; with `CC1(C)CC(Nc2cnc(-c3ccc(-n4nccn4)cc3O)cn2)CC(C)(C)N1` [Cpd 51, 2-{5-[(2,2,6,6-tetramethylpiperidin-4-yl)amino]pyrazin-2-yl}-5-(2H-1,2,3-triazol-2-yl)phenol], 500 to 1000 nM.
In the case of `CC(C)(C)NC1CCN(c2cnc(-c3ccc(-c4cn[nH]c4)cc3O)cn2)C1` (stereo not drawn) [Cpd 52, 2-{5-[3-(tert-butylamino)pyrrolidin-1-yl]pyrazin-2-yl}-5-(1H-pyrazol-4-yl)phenol], the IC50 is < 100 nM.
With `CC1(C)CC(Nc2cnc(-c3ccc(-c4cn5ccnc5cn4)cc3O)cn2)CC(C)(C)N1` [Cpd 53, 5-(imidazo[1,2-a]pyrazin-6-yl)-2-{5-[(2,2,6,6-tetramethylpiperidin-4-yl)amino]pyrazin-2-yl}phenol], the IC50 fell in the range of 100 to 500 nM.
With `Cn1cc(-c2ccc(-c3cnc(NC4CC(C)(C)NC(C)(C)C4)cn3)c(O)c2)cn1` [Cpd 54, 5-(1-methyl-1H-pyrazol-4-yl)-2-{5-[(2,2,6,6-tetramethylpiperidin-4-yl)amino]pyrazin-2-yl}phenol] the figure was < 100 nM; with `Cn1ccc(-c2ccc(-c3cnc(NC4CC(C)(C)NC(C)(C)C4)cn3)c(O)c2)n1` [Cpd 55, 5-(1-methyl-1H-pyrazol-3-yl)-2-{5-[(2,2,6,6-tetramethylpiperidin-4-yl)amino]pyrazin-2-yl}phenol], 500 to 1000 nM.
Consider `CC1(C)CC(Nc2cnc(-c3ccc(-c4ccc5nccn5n4)cc3O)cn2)CC(C)(C)N1` [Cpd 56, 5-(imidazo[1,2-b]pyridazin-6-yl)-2-{5-[(2,2,6,6-tetramethylpiperidin-4-yl)amino]pyrazin-2-yl}phenol], for which the half-maximal inhibitory concentration (IC50) was < 100 nM.
In the case of `CC1(C)CC(Nc2cnc(-c3ccc(-c4cn[nH]c4F)cc3O)cn2)CC(C)(C)N1` [Cpd 57, 5-(5-fluoro-1H-pyrazol-4-yl)-2-{5-[(2,2,6,6-tetramethylpiperidin-4-yl)amino]pyrazin-2-yl}phenol], the IC50 was < 100 nM.
The same measure for `CC1(C)CC(Nc2cnc(-c3ccc(-c4cc[nH]n4)cc3O)cn2)CC(C)(C)N1` [Cpd 58, 5-(1H-pyrazol-3-yl)-2-{5-[(2,2,6,6-tetramethylpiperidin-4-yl)amino]pyrazin-2-yl}phenol]: 100 to 500 nM.
With `CC1(C)CC(Nc2cnc(-c3ccc(-n4cc(F)cn4)cc3O)cn2)CC(C)(C)N1` [Cpd 59, 5-(4-fluoro-1H-pyrazol-1-yl)-2-{5-[(2,2,6,6-tetramethylpiperidin-4-yl)amino]pyrazin-2-yl}phenol], the 50% inhibitory concentration (IC50) fell in the range of 1000 to 3000 nM.
In the case of `[2H]C([2H])([2H])n1cc(-c2ccc(-c3cnc(N4CCC(NC(C)(C)C)C4)cn3)c(O)c2)cn1` (stereo not drawn) [Cpd 60, 2-{5-[3-(tert-butylamino)pyrrolidin-1-yl]pyrazin-2-yl}-5-[1-(^2H3)methyl-1H-pyrazol-4-yl]phenol], the IC50 was < 100 nM.
`CN(c1cnc(-c2ccc(-n3nccn3)cc2O)cn1)C1CC(C)(C)NC(C)(C)C1` [Cpd 61, 2-{5-[methyl(2,2,6,6-tetramethylpiperidin-4-yl)amino]pyrazin-2-yl}-5-(2H-1,2,3-triazol-2-yl)phenol]: the IC50 was in the range of 100 to 500 nM.
As to `Cn1cc(-c2ccc(-c3cnc(N4CCC(NC(C)(C)C)C4)cn3)c(O)c2)cn1` (stereo not drawn) [Cpd 62, 2-{5-[3-(tert-butylamino)pyrrolidin-1-yl]pyrazin-2-yl}-5-(1-methyl-1H-pyrazol-4-yl)phenol], the 50% inhibitory concentration (IC50) was < 100 nM.
On to `CC(C)(C)NC1CCN(c2cnc(-c3ccc(-c4cn[nH]c4)c(F)c3F)cn2)C1` (stereo not drawn) [Cpd 63, N-tert-butyl-1-{5-[2,3-difluoro-4-(1H-pyrazol-4-yl)phenyl]pyrazin-2-yl}pyrrolidin-3-amine], for which the IC50 lay within 100 to 500 nM.
As for `CC(C)(C)NC1CCN(c2cnc(-c3cc(F)c(-c4cn[nH]c4)cc3F)cn2)C1` (stereo not drawn) [Cpd 64, N-tert-butyl-1-{5-[2,5-difluoro-4-(1H-pyrazol-4-yl)phenyl]pyrazin-2-yl}pyrrolidin-3-amine], the IC50 was < 100 nM.
In the case of `CC(C)(C)NC1CCN(c2cnc(-c3ccc(-c4c[nH]nc4F)cc3O)cn2)C1` (stereo not drawn) [Cpd 65, 2-{5-[3-(tert-butylamino)pyrrolidin-1-yl]pyrazin-2-yl}-5-(3-fluoro-1H-pyrazol-4-yl)phenol], the concentration for half-maximal inhibition (IC50) is < 100 nM.
